Data taken from patent US6372690B1 (McGill University, priority 1998, dated 2002).
Entries after “also recorded” stand apart in the source; their conditions may differ.

Assays:
ragweed [1] = experiment: General conclusions on ragweed control from the experiments; format: in vivo
ragweed [2] = experiment: Example 3: assay with other non-ionic surfactants, ragweed plots in waste area situation; format: in vivo
Description: This experiment was conducted to test another solution containing another non-ionic surfactant. The experiment was conducted on plots behind a beef barn complex, on ragweed of 6 to 10 inches in height, fully flowered, in a very hard and gravely soil, such as in a waste area situation. The experiment was conducted as a completely randomized design (CRD) with three replicates.
Each plot has a surface of one (1) m^2. The sprayer used was a small compressed air sprayer with 210 kPa pressure and a T-Jet™ 8002 nozzle. The plots were sprayed Sep. 3, 1996 at 10:00 a.m. under a bright sunshine and a temperature of 28° C. In all instances, the efficacy of the solution was evaluated 20-30 minutes, 2-4 hrs, 16-24 hrs, and 2-5 days after spraying. The efficacy of the solution was determined based on level of plant deterioration.
In this experiment, 14 different treatments were applied to the different plots (with three replicates/treatment).
Once it had been determined that a surfactant could possibly increase efficacy of the NaCl at the same time as reducing the spray volume needed, another non-ionic surfactant, namely Citowett™, was introduced into the trials. All surfactants were applied at the rates usually recommended in the Ontario Guide to Chemical Weed Control (OMAFRA, 1997).

broad-leaved plantain = experiment: Selective control of broad-leaved plantain in turf (FIG. 4); format: in vivo; conditions: 12% NaCl solution; 24 hours following the application
all types of vegetation = conditions: Frear, Chemistry of Pesticides 3rd ed. p. 401, 1955; cited from earlier work
ragweed [3] = experiment: Example 4: concentration of salt with or without surfactants, tall ragweed in cultivated field; format: in vivo; conditions: tall ragweed (40-60 inches)
Description: This experiment was conducted on plot of tall ragweed (40-60 inches), fully flowered, in a cultivated field situation. The experiment was conducted as a completely randomized design (CRD) with three replicates.
Each plot has a surface of four (4) m^2. The sprayer used was a Hardi™ pack sprayer with 200-220 kPa pressure and T-Jet™ 8002 nozzle. The plots were sprayed Sep. 6, 1996 at 09:00 a.m. under a bright sunshine and a temperature of 26° C. In all instances, the efficacy of the solution was evaluated 30 minutes, 2-4 hrs, 16-24 hrs, and 2-5 days after spraying. The efficacy of the solution was determined based on level of plant deterioration.
(§1) In this experiment, 8 different treatments were applied to the different plots (with three replicates/treatment).

ragweed [4] = experiment: Example 5: optimization of salt concentration with or without surfactants, cut ragweed in roadside situation; format: in vivo
Description: This experiment was conducted on plots having ragweed 4 to 6 inches tall, in flower, and which had been cut at least once, in a roadside situation. The experiment was conducted as a randomized complete block design (RCBD) with three replicates.
Each plot has a surface of four (4) m^2. The sprayer used was a small compressed air sprayer with 210 kPa pressure and T-Jet™ 8002 nozzle. The plots were sprayed Sep. 6, 1996 at 13:30, under a bright sunshine and a temperature of 29° C. In all instances, the efficacy of the solution was evaluated 30 minutes, 2-4 hrs, 16-24 hrs, and 2-5 days after spraying. The efficacy of the solution was determined based on level of plant deterioration.
as §1
Only the 8% and 12% rates were considered in this experiment because it had been observed that there was no efficacy or economic benefit to using the 16% or 20% rates of NaCl. Both NaCl concentrations were applied alone or with each of the three surfactants.

ragweed [5] = experiment: Spraying of ragweed plants as described in the description and FIGS. 1-3; format: in vivo; conditions: 12% NaCl solution
ragweed [6] = experiment: Example 2: determination of an adequate volume sprayed, ragweed plots sprayed at 1000 l/ha; format: in vivo
Description: This experiment was conducted to determine if increasing the spray volume to the point where the plants were completely covered to the run-off stage would improve efficacy.
This experiment was conducted on plots within a fencerow of an agricultural field where ragweed plants had attained 12 to 20 inches in height, and were in full flower. The experiment was conducted as a completely randomized design (CRD) with three replicates.
Each plot has a surface of one (1) m^2. The sprayer used was a Hardi™ pack sprayer with Hardi™ nozzle and 200-220 kPa of pressure. The plots were sprayed Aug. 29, 1996 at 13:30 under a bright sunshine and a temperature of 29° C. The spray volume used was 1000 l/ha or 100 ml/m^2 plot.
In all instances, the efficacy of the solution was evaluated 30 minutes, 2-4 hrs, 16-24 hrs, and 2-5 days after spraying. The efficacy of the solution was determined based on level of plant deterioration.
In this experiment, 6 different treatments (having three replicates each) were subjected to the different plots.

Row | Structure (SMILES) | suitability as alternative to NaCl (ragweed [1]; KNO3 at the 12% rate) | efficacy compared with the NaCl solutions (ragweed [2]; 12% KNO3) | control of broad-leaved plantain in turf (FIG. 4) (broad-leaved plantain) | herbicidal effect and selectivity (all types of vegetation) | ragweed control (general conclusion) (ragweed [1]; salt solutions, especially NaCl solutions) | control (ragweed [3]; 8% NaCl) | efficiency compared with higher concentrations (ragweed [3]; 12% NaCl without surfactant) | efficacy compared with the 12% solution (ragweed [2]; 8% NaCl alone) | overall damage to the ragweed compared with the 12% solution (ragweed [2]; 16% NaCl) | overall damage to the ragweed compared with the 12% solution (ragweed [2]; 20% NaCl) | control of ragweed (ragweed [4]; 8% NaCl alone) | effect 30 minutes after application (ragweed [4]; 12% NaCl alone, 30 minutes) | effect 2 days after spraying (ragweed [4]; 12% NaCl alone, 2 days) | effect on ragweed plants (FIGS. 2 and 3) (ragweed [5]; 24 hours following spraying) | effect on ragweed plant (FIG. 1) (ragweed [5]; within 6 hours of applying) | activity at damaging the ragweed (ragweed [6]; 8% NaCl) | overall efficacy (ragweed [6]; 12% NaCl) | difference in effect between 12% and 16% solution (ragweed [6]; 16% NaCl versus 12% NaCl, any time except 30 minutes after application) | speed of wilting (ragweed [6]; 16% NaCl, 30 minutes after application) | reaction of ragweed to the sprays (ragweed [6]; NaCl at all three concentrations (8, 12, 16% W/V), 30 minutes after spraying)
1 | O=[N+]([O-])[O-].[K+] [KNO3, potassium nitrate, reference compound] | not a viable alternative to NaCl | not as effective as any of the NaCl solutions | – | – | – | – | – | – | – | – | – | – | – | – | – | – | – | – | – | –
2 | [Cl-].[Na+] [NaCl, sodium chloride] | – | – | selective control | will kill all types of vegetation, without any selection | effective at ragweed control | slightly lower | as efficient as 16% or 20% | not as effective as the 12% solution | did not visibly improve overall damage to the ragweed | did not visibly improve overall damage to the ragweed | inferior control of ragweed compared with the 12% solution | drooping | complete necrosis | drooping of ragweed staminate flowers and desiccation of leaves; also recorded: desiccated | curling and wilting | there was activity but it did not seem to be as effective as the 12% concentration | sufficient | little difference | appeared to have wilted more quickly than those treated with 12% | the inflorescences were drooping
